Data reported in patent US12186365B2, “Composition for regulating cell division comprising FCHO1 modulator, and method for regulating cell division using same” (SEOUL NATIONAL UNIVERSITY R&DB FOUNDATION, priority 2015, dated 2025).
Marks after values point to notes of the source that are not given here. One block for each molecule: values may come before it. Ends that are not written are not given here. Peptide text beside a SMILES is read from it. * marks the point of attachment. Cbz = O=C(OCc1ccccc1)*

What was measured:
cells [1] = assay: Real-time cell growth measurement using Xcelligence; format: cell-based; conditions: peptides treated in 10 μM, FIG. 30
Protocol: Cell viability was measured using Xcelligence for in real time observation, and the peptides were treated in 10 μM. […] The results are illustrated in FIG. 30.

FCHo1 cleavage = assay: Immunoblot of FCHo1 cleavage in A549 cell extract with or without MG132; format: cell-based, human; conditions: 1 μM MG132, 16 hours, A549 cells
Protocol: The cells were dissolved in IP dissolution buffer for 30 min at 4° C. After centrifugation at 17,000×g for 30 minutes, the concentration of the protein was measured, and the same amount of lysate was used for immunoprecipitation. The immunoprecipitation was carried out overnight at 4° C. using anti-FLAG M^2 affinity gel (Sigma-Aldrich). The precipitate was washed three times with washing solution, and the precipitated proteins were separated using SDS-PAGE. Western blotting was carried out using anti-rabbit antibodies conjugated with specific antibodies and secondary anti-mouse IgG Veriblot or horseradish peroxidase. The results were visualized using a chemiluminescence detector (Atto Ez-Capture MG).
To test the potential involvement of specific proteases to cleave FCHo1, the cells were treated with 1 μM MG132, a protease inhibitor for 16 hours. Immunoblotting of the A549 cell extract was performed in the presence or absence of the MG132 protease inhibitor, and the results are illustrated in FIG. 5.

cells [2] = assay: Intracellular uptake of biotin-conjugated peptides (streptavidin-488, CLSM); format: cell-based; conditions: biotin-conjugated peptide, no carrier or CPP, FIG. 29
Protocol: Biotin-conjugated peptides were treated to cells and fixed on the cells, followed by reaction with streptavidin-488 fluorescent dye, followed by observation with CLSM. The results are illustrated in FIG. 29.

Akt1 = molecular target: T1, Akt1 (Homo sapiens, UniProt P31749); assay: In vitro binding of biotin-conjugated FCHo1-derived peptides to Akt1 (streptavidin plate, cell lysates, Akt1 antibody); conditions: biotin-conjugated peptide on streptavidin plate, FIG. 28
T1 construct: After treating with the cell lysates; endogenous in cells
T1 sequence (P31749 whole entry): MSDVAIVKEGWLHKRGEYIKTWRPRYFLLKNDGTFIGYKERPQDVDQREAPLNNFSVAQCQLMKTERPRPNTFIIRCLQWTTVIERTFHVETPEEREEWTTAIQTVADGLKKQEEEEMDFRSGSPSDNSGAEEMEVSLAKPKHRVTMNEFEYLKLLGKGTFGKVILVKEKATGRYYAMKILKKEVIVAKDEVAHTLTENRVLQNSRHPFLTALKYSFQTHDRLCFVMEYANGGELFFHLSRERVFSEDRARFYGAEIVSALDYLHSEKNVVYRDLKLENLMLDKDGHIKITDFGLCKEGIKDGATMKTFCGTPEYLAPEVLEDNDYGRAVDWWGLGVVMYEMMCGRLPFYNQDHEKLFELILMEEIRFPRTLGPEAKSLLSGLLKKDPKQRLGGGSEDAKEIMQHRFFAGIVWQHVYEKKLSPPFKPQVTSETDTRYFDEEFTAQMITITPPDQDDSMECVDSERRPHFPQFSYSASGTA
Excerpt: To confirm the binding affinity between Akt1 and Akt1 motif-containing FCHo1 amino acid sequence-derived peptides, biotin was conjugated to peptides to complete the synthetization. The peptides were reacted and attached to on the streptavidin-attached plate. After treating with the cell lysates, the binding affinity of the peptide and Akt1 was confirmed by the Akt1 antibody. The experiment process and its result of confirming in vitro binding affinity of Akt1 according to respective peptides derived from FCHo1 binding sites are illustrated in FIG. 28.

mouse FCHo1 = assay: FCHo1 inhibitory effect of shRNA sequences acting on mouse FCHo1; conditions: among four shRNA sequences, SEQ ID NOs: 1 to 4
Protocol: (§1) H&E slides were prepared to confirm whether adenoma and hyperplasia were reduced. The shFCHo1 was used for FCHo1 cleavage inhibition. The sequence thereof is represented in SEQ ID NOs: 1 to 4 based on FIG. 26. […] Therefore, this was used to perform this experiment.

[3] = system: lung cancer model mouse (K-ras); assay: Anticancer effect of aerosol-delivered lentiviral FCHo1 vectors in lung cancer model mouse; format: in vivo; conditions: K-ras female mice, lentiviral vector inhaled 8 times for 4 weeks, H&E slides, 5 mice per group
Protocol: Lentiviral vectors were prepared for the full-length, mutation type and deletion type of FCHo1 and transferred to lung cancer model mouse in a non-invasive aerosol method. Then their anticancer effects were confirmed. Example 8 confirmed that the sites involved in FCHo1 cleavage in human cells were FCHo1^S570A and FCHo1^del563-564. Therefore, corresponding positions were confirmed in mouse FCHo1. It was confirmed that S570A corresponded to S554A and del563-564 corresponded to del544-545. […] Then, the anticancer effects thereof were compared. The results are illustrated in FIG. 25.
as §1

A549 cells = assay: Midbody formation in A549 cells expressing FCHo1 constructs (CLSM, MKLP1 staining); format: cell-based, human; conditions: A549 cells in mitosis, compared with wild-type FCHo1
Protocol: A549 cells were placed in 8-well chamber cover glasses or high-precision cover glasses and were fixed with 3% paraformaldehyde for 10 minutes at room temperature, permeabilized with 0.5% TRITON® X-100 (Sigma-Aldrich) for 5 min, blocked for 30 minutes. Then, the cells were incubated with primary or secondary antibodies in blocking solution (PBS with 0.1% saponin and 3% BSA). Alexa Fluor 647 conjugated anti-rabbit secondary antibody and an oxygen scavenging system (0.5 mg/ml glucose oxidase, 40 μg/ml catalase, 10% glucose, pH 7.4) were used for stochastic optical reconstruction microscopy (dSTORM) imaging. Before imaging, 30 mM mercaptoethylamine ([…]; Sigma) was added to obtain a final thiol concentration of 10-200 mM. All dSTORM and SIM images were obtained from Carl Zeiss ELYRA PS.1 (super-resolution microscopy), and all CLSM images were obtained from the Carl Zeiss LSM710 (confocal laser scanning microscope). […]
In the analysis using the synchronization method, the cells were stained with MKLP1 antibody for the central spindle or midbody type analyses. The rates of cells in anaphase (central spindle) and telophase (midbody) were quantified via CLSM images: FCHo1 siRNA (n=318), wt FCHo1 (n=702), FCHo1 Δ563-564 (n=756) and FCHo1 Δ531-589 (n=1952). […]

Molecule: 560-567: peptide derived from the FCHo1 amino acid sequence, residues 560-567 (PPRRLRSR; UniProt O14526 560-567, looked up, fragment)
inhibitory effect on cell growth (cells [1]): inhibitory effects on the cell growth

Molecule: CC(C)C[C@@H](C=O)NC(=O)[C@H](CC(C)C)NC(=O)[C@H](CC(C)C)NC(=O)OCc1ccccc1 [MG132] (Cbz-Leu-Leu-Leu-aldehyde)
cleaved FCHo1 protein (immunoblot) (FCHo1 cleavage): completely disappeared

Molecule: PPRRLRSRKVSC [560-571, PPRRLRSRKVSC]
absorption into a cell (cells [2]): increase in absorption into a cell in a concentration-dependent manner

Akt1 binding affinity (Akt1): significantly increased
Molecule: RRLRSRKVSC (FCHo1 fragment) [562-571]
inhibitory effect on cell growth (cells [1]): inhibitory effects on the cell growth

Molecule: shFCHo1: shRNA acting on mouse FCHo1, SEQ ID NO: 2 (GAGAGAACACCAGCCAGAAUCUCUUCUGGCUGGUGUUCUCUC; hairpin, further chemistry not given here)
FCHo1 inhibitory effect (mouse FCHo1): most significant FCHo1 inhibitory effect
No. of Adenocarcinoma [3]: 0.20 ± 0.45
No. of Adenoma [3]: 0.60 ± 0.55
No. of hyperplasia foci [3]: 0.60 ± 0.55**^,#

B1: Δ563-564: human FCHo1 with 563-564aa deleted (MMP-9 cleavage site), expressed in A549 cells (protein)
chain: MSYFGEHFWGEKNHGFEVLYHSVKQGPISTKELADFIRERATIEETYSKAMAKLSKLASNGTPMGTFAPLWEVFRVSSDKLALCHLELTRKLQDLIKDVLRYGEEQLKTHKKCKEEVVSTLDAVQVLSGVSQLLPKSRENYLNRCMDQERLRRESTSQKEMDKAETKTKKAAESLRRSVEKYNSARADFEQKMLDSALRFQAMEETHLRHMKALLGSYAHSVEDTHVQIGQVHEEFKQNIENVSVEMLLRKFAESKGTGREKPGPLDFEAYSAAALQEAMKRLRGAKAFRLPGLSRREREPEPPAAVDFLEPDSGTCPEVDEEGFTVRPDVTQNSTAEPSRFSSSDSDFDDEEPRKFYVHIKPAPARAPACSPEAAAAQLRATAGSLILPPGPGGTMKRHSSRDAAGKPQRPRSAPRTSSCAERLQSEEQVSKNLFGPPLESAFDHEDFTGSSSLGFTSSPSPFSSSSPENVEDSGLDSPSHAAPGPSPDSWVPRPGTPQSPPSCRAPPPEARGIRAPPLPDSPQPLASSPGPWGLEALAGGDLMPAPADPTAREGLAAPPRRSRKVSCPLTRSNGDLSRSLSPSPLGSSAASTALERPSFLSQTGHGVSRGPSPVVLGSQDALPIATAFTEYVHAYFRGHSPSCLARVTGELTMTFPAGIVRVFSGTPPPPVLSFRLVHTTAIEHFQPNADLLFSDPSQSDPETKDFWLNMAALTEALQRQAEQNPTASYYNVVLLRYQFSRPGPQSVPLQLSAHWQCGATLTQVSVEYGYRPGATAVPTPLTNVQILLPVGEPVTNVRLQPAATWNLEEKRLTWRLPDVSEAGGSGRLSASWEPLSGPSTPSPVAAQFTSEGTTLSGVDLELVGSGYRMSLVKRRFATGMYLVSC
modifications: Fcho1 delta563-564
notes: human FCHo1 with 563-564aa deleted (MMP-9 cleavage site), expressed in A549 cells
midbody formation (A549 cells): inhibited the midbody formation
